Results reported in US11497212B2, “Substituted thiophenyl uracils, salts thereof and the use thereof as herbicidal agents” (Syngenta Crop Protection AG, priority 2017, dated 2022).
Values belong to the compound of their own block, whether it stands above or below them.

What was measured:
Format in all cases: in vivo
Zea mays [1] = assay: Crop compatibility pre-emergence (greenhouse pot trial); settings: effect vs untreated controls
Method in brief: (§1)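 Pre-emergence: seeds sown in pots, covered with soil, then WP or EC formulations sprayed on soil surface as aqueous suspension/emulsion with 0.5% additive at 600 L/ha water. Greenhouse; crop damage scored visually as % versus untreated controls after about 3 weeks (100% = dead).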

Echinochloa crus-galli [2] = assay: Herbicidal action post-emergence (greenhouse pot trial); settings: application rate 80 g/ha, scored visually after about 3 weeks vs untreated controls
Method in brief: (§2)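 Weed seeds sown in sandy loam were grown in a greenhouse for 2–3 weeks and treated at the one-leaf stage. WP or EC formulations, with 0.5% additive, were sprayed on green parts at a water rate of 600 L/ha and at 80 g/ha or lower. Efficacy was scored visually about 3 weeks later against untreated controls.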

Avena fatua [3] = assay: as above; settings: application rate 80 g/ha, scored visually after about 3 weeks vs untreated controls
Method in brief: as §2

Viola tricolor [4] = assay: as above; settings: application rate 80 g/ha
Method in brief: as §2

Hordeum murinum [5] = assay: as above; settings: application rate 80 g/ha, scored visually after about 3 weeks vs untreated controls
Method in brief: as §2

Polygonum convolvulus = assay: as above; settings: application rate 80 g/ha, scored visually after about 3 weeks vs untreated controls
Method in brief: as §2

Alopecurus myosuroides [6] = assay: as above; settings: application rate 80 g/ha, scored visually after about 3 weeks vs untreated controls
Method in brief: as §2

Abutilon theophrasti [7] = assay: as above; settings: application rate 80 g/ha, scored visually after about 3 weeks vs untreated controls
Method in brief: as §2

Setaria viridis [8] = assay: as above; settings: application rate 80 g/ha, scored visually after about 3 weeks vs untreated controls
Method in brief: as §2

Lolium rigidum [9] = assay: as above; settings: application rate 80 g/ha, scored visually after about 3 weeks vs untreated controls
Method in brief: as §2

Stellaria media [10] = assay: as above; settings: application rate 80 g/ha, scored visually after about 3 weeks vs untreated controls
Method in brief: as §2

Pharbitis purpurea [11] = assay: as above; settings: application rate 80 g/ha
Method in brief: as §2

Matricaria inodora [12] = assay: as above; settings: application rate 80 g/ha, scored visually after about 3 weeks vs untreated controls
Method in brief: as §2

Amaranthus retroflexus [13] = assay: as above; settings: application rate 80 g/ha, scored visually after about 3 weeks vs untreated controls
Method in brief: as §2

Veronica persica [14] = assay: as above; settings: application rate 80 g/ha
Method in brief: as §2

Zea mays [15] = assay: Crop compatibility post-emergence (greenhouse pot trial); settings: application rate 5 g/ha
Method in brief: (§3)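 Greenhouse pot trial: sandy loam, sown seeds, treatment at one-leaf stage 2–3 wk after sowing. Spray: aqueous WP/EC preparation, 0.5% additive, 600 L/ha. Readout: visual % effect after ~3 wk relative to untreated plants.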

Triticum aestivum = assay: as above
Method in brief: as §3

Oryza sativa = assay: as above
Method in brief: as §3

Cyperus esculentus = assay: Herbicidal action pre-emergence (greenhouse pot trial); settings: application rate 320 g/ha
Method in brief: (§4)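 Pre-emergence: WP or EC formulations sprayed onto covering soil over sown seeds as aqueous suspension/emulsion with 0.5% additive, 600 L/ha water, at 320 g/ha or lower. Visual percent efficacy versus untreated controls after about 3 weeks in greenhouse (100% = plants dead).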

Echinochloa crus-galli [16] = assay: as above; settings: application rate 320 g/ha, scored after about 3 weeks
Method in brief: as §4

Avena fatua [17] = assay: as above; settings: application rate 320 g/ha
Method in brief: as §4

Viola tricolor [18] = assay: as above; settings: application rate 320 g/ha, scored after about 3 weeks
Method in brief: as §4

Hordeum murinum [19] = assay: as above; settings: application rate 320 g/ha
Method in brief: as §4

Alopecurus myosuroides [20] = assay: as above; settings: application rate 320 g/ha, scored after about 3 weeks
Method in brief: as §4

Abutilon theophrasti [21] = assay: as above; settings: application rate 320 g/ha, scored after about 3 weeks
Method in brief: as §4

Setaria viridis [22] = assay: as above; settings: application rate 320 g/ha, scored after about 3 weeks
Method in brief: as §4

Lolium rigidum [23] = assay: as above; settings: application rate 320 g/ha
Method in brief: as §4

Stellaria media [24] = assay: as above; settings: application rate 320 g/ha, scored after about 3 weeks
Method in brief: as §4

Pharbitis purpurea [25] = assay: as above; settings: application rate 320 g/ha
Method in brief: as §4

Matricaria inodora [26] = assay: as above; settings: application rate 320 g/ha, scored after about 3 weeks
Method in brief: as §4

Amaranthus retroflexus [27] = assay: as above; settings: application rate 320 g/ha, scored after about 3 weeks
Method in brief: as §4

Glycine max = assay: Crop compatibility pre-emergence (greenhouse pot trial); settings: application rate 20 g/ha, effect vs untreated controls
Method in brief: as §1

Digitaria sanguinalis [28] = assay: Herbicidal action post-emergence (greenhouse pot trial); settings: application rate 80 g/ha
Method in brief: as §2

Digitaria sanguinalis [29] = assay: Herbicidal action pre-emergence (greenhouse pot trial); settings: application rate 80 g/ha
Method in brief: as §4

Veronica persica [30] = assay: as above; settings: application rate 320 g/ha
Method in brief: as §4

Zea mays (Efficacy in %) (Zea mays [1]; application rate 20 g/ha): 0% | Zea mays (Efficacy in %) (Zea mays [15]): 10% | Triticum aestivum (Efficacy in %) (Triticum aestivum; application rate 20 g/ha): 20% | Oryza sativa (Efficacy in %) (Oryza sativa; application rate 20 g/ha): 0%
SMILES: CC(Sc1cc(-n2c(=O)cc(C(F)(F)F)n(C)c2=O)c(F)cc1Cl)C(=O)NCC1CCCO1 (stereo not shown) [I.1-221]
Echinochloa crus-galli (Efficacy in %) (Echinochloa crus-galli [2]): 100% | Avena fatua (Efficacy in %) (Avena fatua [3]): 80% | Viola tricolor (Efficacy in %) (Viola tricolor [4]): 100% | Hordeum murinum (Efficacy in %) (Hordeum murinum [5]): 80% | Polygonum convolvulus (Efficacy in %) (Polygonum convolvulus): 100% | Alopecurus myosuroides (Efficacy in %) (Alopecurus myosuroides [6]): 90% | Abutilon theophrasti (Efficacy in %) (Abutilon theophrasti [7]): 100% | Setaria viridis (Efficacy in %) (Setaria viridis [8]): 100% | Lolium rigidum (Efficacy in %) (Lolium rigidum [9]): 90% | Stellaria media (Efficacy in %) (Stellaria media [10]): 100% | Pharbitis purpurea (Efficacy in %) (Pharbitis purpurea [11]): 100% | Matricaria inodora (Efficacy in %) (Matricaria inodora [12]): 100% | Amaranthus retroflexus (Efficacy in %) (Amaranthus retroflexus [13]): 100% | Veronica persica (Efficacy in %) (Veronica persica [14]): 100% | Cyperus esculentus (Efficacy in %) (Cyperus esculentus): 100% | Echinochloa crus-galli (Efficacy in %) (Echinochloa crus-galli [16]): 100% | Avena fatua (Efficacy in %) (Avena fatua [17]): 100% | Viola tricolor (Efficacy in %) (Viola tricolor [18]): 100% | Hordeum murinum (Efficacy in %) (Hordeum murinum [19]): 100% | Alopecurus myosuroides (Efficacy in %) (Alopecurus myosuroides [20]): 90% | Abutilon theophrasti (Efficacy in %) (Abutilon theophrasti [21]): 100% | Setaria viridis (Efficacy in %) (Setaria viridis [22]): 100% | Lolium rigidum (Efficacy in %) (Lolium rigidum [23]): 100% | Stellaria media (Efficacy in %) (Stellaria media [24]): 100% | Pharbitis purpurea (Efficacy in %) (Pharbitis purpurea [25]): 100% | Matricaria inodora (Efficacy in %) (Matricaria inodora [26]): 100% | Amaranthus retroflexus (Efficacy in %) (Amaranthus retroflexus [27]): 100%

Glycine max (Efficacy in %) (Glycine max): 20% | Zea mays (Efficacy in %) (Zea mays [1]; application rate 80 g/ha): 10% | Triticum aestivum (Efficacy in %) (Triticum aestivum; application rate 80 g/ha): 20% | Oryza sativa (Efficacy in %) (Oryza sativa; application rate 5 g/ha): 20%
SMILES: CCC(Sc1cc(-n2c(=O)cc(C(F)(F)F)n(C)c2=O)c(F)cc1Cl)C(=O)OCC1CCOC1 (stereo not shown) [I.2-72, Tetrahydrofuran-3-ylmethyl 2-({2-chloro-4-fluoro-5-[3-methyl-2,6-dioxo-4-(trifluoromethyl)-3,6-dihydropyrimidin-1(2H)-yl]phenyl}sulfanyl)butanoate]
Digitaria sanguinalis (Efficacy in %) (Digitaria sanguinalis [28]): 100% | Echinochloa crus-galli (Efficacy in %) (Echinochloa crus-galli [2]): 100% | Avena fatua (Efficacy in %) (Avena fatua [3]): 80% | Viola tricolor (Efficacy in %) (Viola tricolor [4]): 100% | Hordeum murinum (Efficacy in %) (Hordeum murinum [5]): 80% | Polygonum convolvulus (Efficacy in %) (Polygonum convolvulus): 100% | Alopecurus myosuroides (Efficacy in %) (Alopecurus myosuroides [6]): 90% | Abutilon theophrasti (Efficacy in %) (Abutilon theophrasti [7]): 100% | Setaria viridis (Efficacy in %) (Setaria viridis [8]): 100% | Lolium rigidum (Efficacy in %) (Lolium rigidum [9]): 80% | Stellaria media (Efficacy in %) (Stellaria media [10]): 100% | Pharbitis purpurea (Efficacy in %) (Pharbitis purpurea [11]): 100% | Matricaria inodora (Efficacy in %) (Matricaria inodora [12]): 100% | Amaranthus retroflexus (Efficacy in %) (Amaranthus retroflexus [13]): 100% | Veronica persica (Efficacy in %) (Veronica persica [14]): 100% | Digitaria sanguinalis (Efficacy in %) (Digitaria sanguinalis [29]): 100% | Echinochloa crus-galli (Efficacy in %) (Echinochloa crus-galli [16]): 100% | Avena fatua (Efficacy in %) (Avena fatua [17]): 80% | Viola tricolor (Efficacy in %) (Viola tricolor [18]): 100% | Hordeum murinum (Efficacy in %) (Hordeum murinum [19]): 90% | Alopecurus myosuroides (Efficacy in %) (Alopecurus myosuroides [20]): 100% | Abutilon theophrasti (Efficacy in %) (Abutilon theophrasti [21]): 100% | Setaria viridis (Efficacy in %) (Setaria viridis [22]): 100% | Lolium rigidum (Efficacy in %) (Lolium rigidum [23]): 90% | Stellaria media (Efficacy in %) (Stellaria media [24]): 100% | Pharbitis purpurea (Efficacy in %) (Pharbitis purpurea [25]): 100% | Matricaria inodora (Efficacy in %) (Matricaria inodora [26]): 100% | Amaranthus retroflexus (Efficacy in %) (Amaranthus retroflexus [27]): 100% | Veronica persica (Efficacy in %) (Veronica persica [30]): 100%
